Assay results from patent US7943660B2, “Inhibitors of the LFA-1/ICAM-1 interaction and uses thereof” (Dominion Pharmakine S.L., priority 2005, dated 2011).

How the values were obtained:
[1] = test system: B16 melanoma (B16M) cell adhesion to VEGF-induced HSE cells mediated by LFA-1; assay: B16M cell adhesion to VEGF-treated hepatic sinusoidal endothelial (HSE) cells in vitro; format: cell-based, murine; details: HSE pre-incubated with 10 μg/ml HC0303 30 min prior to 10 ng/ml rmVEGF for 8 hours; FIG. 5; P<0.001
Method: (§1) Time-dependent adhesion assays was carried out on a quantitative basis according to previous validated bioassays (Vidal-Vanaclocha et al., Cancer Research, 1994, 54(10):2667-72). For tumor cell pre-labelling, they were allowed to accumulate the non-fluorescent sterase substrate BCECF-AM and to hydrolyze it to its fluorescent product BCECF which becomes trapped inside living cells. To do this, 50 μg of BCECF-AM were diluted in dry DMSO (5 μl) and DME medium until […] (40 μg/ml).
(§2) Tumor cells (5×10^6) were incubated in BCECF-AM solution at 37° C. for 30 min. After gently washing, tumor cells were resuspended in fresh medium (DMEM without phenol red) at a concentration of 2×10^6 cells/ml.
(§3) Twenty-four hours post-plating, primary cultured hepatic sinusoidal endothelial (HSE) cells were also used for adhesion assay. To determine the basal autofluorescence per well, plates were read on a fluorometric microplate reader (Multiskan Ascent, Thermo Labsystems) using 485/22 nm excitation and the 530/25 nm emission filter. Then, 2×10^5 labeled tumor cells were added to each well of HSE cells and to collagen pre-coated control wells.
(§4) However, in order to determine the exact number of cells in each well, co-culture plates were read for a second time. Then, plates were incubated at 37° C. […]

[2] = test system: Co26-CC cells; assay: Hepatic metastasis assay (intrasplenic injection of Co26-CC cells); format: in vivo, BALB/c mice; details: Co26-CC cells preincubated with 10 μg/ml HC0303 for 30 min before intrasplenic injection; day 14; vs untreated cells; FIG. 9; P<0.01
Method: Hepatic metastases were produced by the intrasplenic injection into anesthetized male BALB/c mice (6- to 8-weeks old) of 1.5×10^5 viable Co26-CC cells suspended in 0.1 ml Hanks' balanced salt solution. Some cells were incubated with 10 μg/ml compound HC0303 for 30 min prior to their inoculation. Mice were killed by cervical dislocation on the 14th day after the injection of cancer cells. An integrated image analysis system (Olympus Microimage 4.0 capture kit) connected to an Olympus BX51TF microscope was used to quantify the number of foci and their average diameters in serially-cut and hematoxylin/eosin stained hepatic tissue sections.
Densitometric analysis of digitalized microscopic images was used to distinguish metastatic tissue from normal hepatic tissue. Previously described stereological procedures were employed (cf. Vidal-Vanaclocha et al., Cancer Research, 1994, 54(10):2667-72) and the following parameters were calculated: the liver metastasis density, which was the number of metastases per 100 mm^3 of liver (based on the mean number of foci detected in fifteen 10×10 mm^2 sections per liver) and the liver metastasis volume (mean percentage of liver volume occupied by metastases).
In vitro effect of compound HC0303 on in vivo metastatic behavior of cancer cells was tested in Co26-CC cells. […] In addition, the percentage of liver volume occupied by metastases was assessed. […]

[3] = test system: Co26 murine colon carcinoma (Co26-CC) cell adhesion to HSE cells; assay: Co26 colon carcinoma cell adhesion to HSE cells; format: cell-based; details: FIG. 6B
Method: as §1, §2, §3, §4

CC[C@H](C)C(OCc1ccccc1)[C@@H]1[C@H]([N+](=O)[O-])[C@H](c2ccccc2)N[C@]1(C)C(=O)NCCC(=O)O (stereo partly drawn) [HC0303, 3-[(2S,3R,4S,5S)-3-[(2S)-1-(Benzyloxy)-2-methylbutyl]-2-methyl-4-nitro-5-phenylpyrrolidine-2-carboxamido]propanoic acid]
B16M cell adhesion increase produced in response of VEGF [1]: abrogated | liver metastasis density (number of foci/100 mm^3) [2]: almost abrogated | liver metastasis volume (percentage of liver volume occupied by metastases) [2]: almost abrogated | PMA-induced cancer cell adhesion to HSE cells ([3]; 100 ng/ml PMA 30 min, then HC0303 20 μg/5×10^5 cells for 30 min, P<0.01): significantly decreased | adhesion to untreated HSE cells (no PMA) ([3]; HC0303 20 μg/5×10^5 cells for 30 min): did not affect
